Experimental data taken from patent publication US10351559B2, “Maleate salts of a B-RAF kinase inhibitor, crystalline forms, methods of preparation, and uses therefore” (BeiGene, Ltd., priority 2015, dated 2019).
Counter-ions that a name gives are not always drawn.

How the values were obtained:
[1] = target: T1, EPHA2 (Homo sapiens, UniProt P29317); assay: HTRF KinEASE-TK kinase assay; assay type: biochemical
T1 construct: purchased Carna Biosciences
Method: (§1) Crystalline Form A* of Compound 1 Sesqui-Maleate was tested against recombinant EGFR/EPHA2/BTK (from Carna Biosciences), ITK/TEC/SRC/PDGFR-beta/TXK/FLT3/VEGFR2/RET (from Life Technologies), and HER2 (aa676-1255, recombinant protein purified from insect expression system) in HTRF KinEASE-TK assay from Cisbio Bioassays according to the manufacturer's instructions. The assay was carried out in a reaction mixture containing kinases, ATP at KM concentration, biotinylated peptide substrate (61TK0BLC, Cisbio Bioassays) and Crystalline Form A* of Compound 1 Sesqui-Maleate. The kinase was incubated with Crystalline Form A* of Compound 1 Sesqui-Maleate at RT for 1 hr or 2 hr (for EGFR) and the reaction was initiated by the addition of ATP and substrate. After reaction, stop/detection solution was added according to the manufacture's instruction. The stop/detection solution contained Eu+ cryptate conjugated antiphosphotyrosine antibody (61T66kLB, CisBio Bioassays) and Streptavidin-XL665 (610SAXLB, CisBio Bioassays) in buffer containing 25 mM Tris pH7.4, 400 mM KF, 50 mM EDTA, 0.01% BSA, 0.01% Triton X-100. The TR-FRET signals (ratio of fluorescence emission at 665 nm over emission at 620 nm with excitation at 337 nm wavelength) were recorded on a PHERAstar FS plate reader (BMG Labtech) after 1 hr incubation. Phosphorylation of biotinylated peptide substrate led to the binding of both Eu+ cryptate conjugated antiphosphotyrosine antibody and streptaviding-XL665 to the biotinylated peptide. The close proximity of the donor (Eu+ cryptate) and acceptor (XL665) fluorophore led to a high degree of fluorescence resonance energy transfer from the donor fluorophore (at 620 nm) to the acceptor fluorophore (at 665 nm). The IC50 for Crystalline Form A* of Compound 1 Sesqui-Maleate was derived from fitting the dose-response % inhibition data to the four-parameter logistic model by Graphpad Prism software.

[2] = target: T2, SRC (Homo sapiens, UniProt P12931); assay: HTRF KinEASE-TK kinase assay; assay type: biochemical
T2 construct: purchased Life Technologies
Method: as §1

[3] = target: T3, FLT3 (Homo sapiens, UniProt P36888); assay: HTRF KinEASE-TK kinase assay; assay type: biochemical
T3 construct: purchased Life Technologies
Method: as §1

[4] = target: T4, BTK (Homo sapiens, UniProt Q06187); assay: HTRF KinEASE-TK kinase assay; assay type: biochemical
T4 construct: purchased Carna Biosciences
Method: as §1

[5] = target: T5, TXK (Homo sapiens, UniProt P42681); assay: HTRF KinEASE-TK kinase assay; assay type: biochemical
T5 construct: purchased Life Technologies
Method: as §1

[6] = target: T6, TEC (Homo sapiens, UniProt P42680); assay: HTRF KinEASE-TK kinase assay; assay type: biochemical
T6 construct: purchased Life Technologies
Method: as §1

[7] = target: T7, ITK (Homo sapiens, UniProt Q08881); assay: HTRF KinEASE-TK kinase assay; assay type: biochemical
T7 construct: purchased Life Technologies
Method: as §1

[8] = target: T8, PDGFR-beta (Homo sapiens, UniProt P09619); assay: HTRF KinEASE-TK kinase assay; assay type: biochemical
T8 construct: purchased Life Technologies
Method: as §1

[9] = target: T9, RET (Homo sapiens, UniProt P07949); assay: HTRF KinEASE-TK kinase assay; assay type: biochemical
T9 construct: purchased Life Technologies
Method: as §1

[10] = test system: A375 cells; assay: CellTiter-Glo luminescent cell viability assay; assay type: cell-based; conditions: Homo sapiens, A-375, 72 h; A375, BRAF V600E, 3-day exposure, N=2; read-out: Compound 1 EC50 (mean ± SD)
Method: (§2) A375, Sk-Mel-28, HT29, Colo205, A431, and HCC827 cell lines were purchased from American Type Culture Collection. All the cell lines used in the cellular assays were cultured in the designated medium supplemented with 10% fetal bovine serum (FBS, Thermo Scientific), 100 units/mL penicillin (Gibco), 0.1 mg/mL streptomycin (Gibco) and in a humidified 37° C. environment with 5% CO2. Cell lines were reinstated from frozen stocks laid down within three passages from the original cells purchased and passaged no more than 30 times.
(§3) The growth-inhibitory activity of compounds in a panel of melanoma, colon, breast and lung cancer cells was determined using CellTiter-Glo luminescent cell viability assay (Promega). The number of cells seeded per well of a 96-well plate was optimized for each cell line to ensure logarithmic growth over the 3 days treatment period. Cells were left to attach for 16 hours and then treated with a 10-point dilution series in duplicate. Following a 3-day exposure to the compound, a volume of CellTiter-Glo reagent equal to the volume of cell culture medium present in each well was added. Mixture was placed on an orbital shaker for 2 minutes to allow cell lysing, followed by 10 minutes incubation at room temperature to allow development and stabilization of luminescent signal. Luminescent signal was measured using PHERAstar FS reader (BMG Labtech). EC50 values for cell viability were determined with GraphPad Prism software.

[11] = test system: Colo-205 cells; assay: CellTiter-Glo luminescent cell viability assay; assay type: cell-based; conditions: Homo sapiens, 72 h; Colo-205, BRAF V600E, 3-day exposure, N=2; read-out: Compound 1 EC50 (mean ± SD)
Method: as §2, §3

[12] = test system: Sk-Mel-28 cells; assay: CellTiter-Glo luminescent cell viability assay; assay type: cell-based; conditions: Homo sapiens, 72 h; Sk-Mel-28, BRAF V600E, 3-day exposure, N=2; read-out: Compound 1 EC50 (mean ± SD)
Method: as §2, §3

[13] = test system: HT-29 cells; assay: CellTiter-Glo luminescent cell viability assay; assay type: cell-based; conditions: Homo sapiens, 72 h; HT-29, BRAF V600E, 3-day exposure, N=2; read-out: Compound 1 EC50 (mean ± SD)
Method: as §2, §3

[14] = target: CYP2C19 (Homo sapiens, UniProt P33261); assay: CYP inhibition; assay type: in vitro ADME
[15] = Raf kinase enzymatic assay (HTRF)
[16] = pharmacokinetic study (LC-MS/MS); assay type: in vivo, Sprague-Dawley rats; conditions: rats
Description: The fully-validated LC-MS/MS method was well used for the pharmacokinetic (PK) studies of Crystalline Form A* of Compound 1 Sesqui-Maleate in Sprague-Dawley rats and beagle dogs following single- and multiple-dose administrations.

T8 sequence (P09619 33-1106): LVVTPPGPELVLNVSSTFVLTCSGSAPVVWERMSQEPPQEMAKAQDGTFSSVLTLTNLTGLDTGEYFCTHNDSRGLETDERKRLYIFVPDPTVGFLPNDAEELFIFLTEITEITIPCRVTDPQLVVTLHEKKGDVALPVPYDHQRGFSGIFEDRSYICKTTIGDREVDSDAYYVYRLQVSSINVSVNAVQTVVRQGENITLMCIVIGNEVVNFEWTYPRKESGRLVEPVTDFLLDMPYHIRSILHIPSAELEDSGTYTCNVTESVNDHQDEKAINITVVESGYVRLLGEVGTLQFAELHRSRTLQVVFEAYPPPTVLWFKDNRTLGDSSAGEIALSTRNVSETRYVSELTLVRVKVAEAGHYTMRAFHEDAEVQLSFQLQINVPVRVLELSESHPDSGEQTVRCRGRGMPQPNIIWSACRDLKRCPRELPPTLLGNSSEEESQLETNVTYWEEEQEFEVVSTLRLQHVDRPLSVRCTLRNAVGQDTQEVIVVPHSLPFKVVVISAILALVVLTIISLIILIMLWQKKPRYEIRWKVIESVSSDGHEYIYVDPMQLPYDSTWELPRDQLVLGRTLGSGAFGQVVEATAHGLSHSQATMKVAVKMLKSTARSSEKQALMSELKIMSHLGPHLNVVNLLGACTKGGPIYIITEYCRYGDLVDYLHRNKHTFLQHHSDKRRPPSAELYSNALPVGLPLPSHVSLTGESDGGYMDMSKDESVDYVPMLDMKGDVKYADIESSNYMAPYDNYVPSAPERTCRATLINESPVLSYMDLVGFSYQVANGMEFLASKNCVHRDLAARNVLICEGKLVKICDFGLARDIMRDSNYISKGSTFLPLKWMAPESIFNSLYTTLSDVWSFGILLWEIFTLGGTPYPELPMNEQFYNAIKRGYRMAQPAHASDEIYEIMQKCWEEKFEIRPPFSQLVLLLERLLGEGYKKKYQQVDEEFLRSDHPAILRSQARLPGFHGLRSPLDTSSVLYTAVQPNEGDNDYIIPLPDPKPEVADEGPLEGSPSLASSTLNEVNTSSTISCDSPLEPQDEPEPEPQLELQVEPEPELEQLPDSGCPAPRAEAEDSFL
T1 sequence (P29317 24-976): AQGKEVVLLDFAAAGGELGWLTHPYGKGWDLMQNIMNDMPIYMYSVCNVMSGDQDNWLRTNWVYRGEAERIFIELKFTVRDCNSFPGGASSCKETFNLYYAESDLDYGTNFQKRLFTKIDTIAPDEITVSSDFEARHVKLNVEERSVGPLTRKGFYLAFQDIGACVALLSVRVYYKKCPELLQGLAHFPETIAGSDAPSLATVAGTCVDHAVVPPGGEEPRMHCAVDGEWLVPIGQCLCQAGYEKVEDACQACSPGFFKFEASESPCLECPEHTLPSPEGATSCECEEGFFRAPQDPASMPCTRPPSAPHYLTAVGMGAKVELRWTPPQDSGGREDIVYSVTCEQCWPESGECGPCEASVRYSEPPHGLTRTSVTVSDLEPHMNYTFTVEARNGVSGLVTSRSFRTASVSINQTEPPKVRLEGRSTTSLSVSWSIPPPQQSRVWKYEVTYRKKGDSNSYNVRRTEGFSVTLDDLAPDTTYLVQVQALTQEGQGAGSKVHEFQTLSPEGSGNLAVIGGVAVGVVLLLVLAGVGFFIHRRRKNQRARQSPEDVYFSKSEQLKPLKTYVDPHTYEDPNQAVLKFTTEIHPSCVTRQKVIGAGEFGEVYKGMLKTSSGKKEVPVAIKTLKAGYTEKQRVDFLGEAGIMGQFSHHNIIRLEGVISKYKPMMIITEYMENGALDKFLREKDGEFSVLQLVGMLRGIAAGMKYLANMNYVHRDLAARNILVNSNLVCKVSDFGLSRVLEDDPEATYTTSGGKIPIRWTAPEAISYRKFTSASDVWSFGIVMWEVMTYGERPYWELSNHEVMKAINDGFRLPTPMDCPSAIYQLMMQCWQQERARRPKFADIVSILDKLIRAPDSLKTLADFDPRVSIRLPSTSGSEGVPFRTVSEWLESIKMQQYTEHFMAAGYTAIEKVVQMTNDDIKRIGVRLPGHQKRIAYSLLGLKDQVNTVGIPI
T6 sequence (P42680 whole entry): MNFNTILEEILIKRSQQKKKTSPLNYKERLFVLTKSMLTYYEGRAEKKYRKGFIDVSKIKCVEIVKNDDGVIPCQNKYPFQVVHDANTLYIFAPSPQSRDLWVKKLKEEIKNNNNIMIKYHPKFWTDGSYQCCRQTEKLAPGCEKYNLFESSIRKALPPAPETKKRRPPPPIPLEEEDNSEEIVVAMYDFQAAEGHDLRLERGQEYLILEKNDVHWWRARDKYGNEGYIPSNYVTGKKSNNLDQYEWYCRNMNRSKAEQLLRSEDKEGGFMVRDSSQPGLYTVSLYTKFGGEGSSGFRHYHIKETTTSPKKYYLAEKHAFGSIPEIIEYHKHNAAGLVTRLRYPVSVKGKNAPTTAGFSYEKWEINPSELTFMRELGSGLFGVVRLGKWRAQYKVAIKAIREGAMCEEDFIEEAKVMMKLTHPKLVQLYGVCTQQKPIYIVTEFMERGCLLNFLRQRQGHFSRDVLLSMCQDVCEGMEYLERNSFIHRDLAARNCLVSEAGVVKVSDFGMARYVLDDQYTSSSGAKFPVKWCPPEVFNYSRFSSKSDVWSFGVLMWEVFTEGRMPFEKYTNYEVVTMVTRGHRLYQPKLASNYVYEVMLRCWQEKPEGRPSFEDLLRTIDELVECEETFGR
T3 sequence (P36888 27-993): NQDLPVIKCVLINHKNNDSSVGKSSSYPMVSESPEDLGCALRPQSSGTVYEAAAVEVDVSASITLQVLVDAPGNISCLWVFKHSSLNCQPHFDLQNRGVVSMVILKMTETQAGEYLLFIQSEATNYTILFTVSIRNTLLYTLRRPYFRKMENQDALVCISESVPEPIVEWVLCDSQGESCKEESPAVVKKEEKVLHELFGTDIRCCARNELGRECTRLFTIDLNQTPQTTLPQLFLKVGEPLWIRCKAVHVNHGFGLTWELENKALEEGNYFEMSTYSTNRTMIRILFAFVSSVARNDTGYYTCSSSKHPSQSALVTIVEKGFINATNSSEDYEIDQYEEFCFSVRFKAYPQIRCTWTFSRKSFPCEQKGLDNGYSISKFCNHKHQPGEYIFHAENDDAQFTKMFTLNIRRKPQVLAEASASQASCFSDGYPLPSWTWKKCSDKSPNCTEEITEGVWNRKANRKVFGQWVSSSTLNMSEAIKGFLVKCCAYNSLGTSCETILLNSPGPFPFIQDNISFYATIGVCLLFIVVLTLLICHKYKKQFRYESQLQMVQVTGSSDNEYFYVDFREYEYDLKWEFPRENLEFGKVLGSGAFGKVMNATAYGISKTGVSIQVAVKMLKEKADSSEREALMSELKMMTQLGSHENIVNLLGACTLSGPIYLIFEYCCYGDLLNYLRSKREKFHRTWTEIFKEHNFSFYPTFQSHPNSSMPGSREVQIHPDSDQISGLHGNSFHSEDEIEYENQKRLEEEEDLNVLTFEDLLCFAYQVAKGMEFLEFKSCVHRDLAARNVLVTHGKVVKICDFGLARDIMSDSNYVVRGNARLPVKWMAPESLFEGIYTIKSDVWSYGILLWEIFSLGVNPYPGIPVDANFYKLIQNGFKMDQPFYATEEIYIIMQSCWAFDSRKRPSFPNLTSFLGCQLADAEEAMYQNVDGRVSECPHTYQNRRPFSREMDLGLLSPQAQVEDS
T4 sequence (Q06187 whole entry): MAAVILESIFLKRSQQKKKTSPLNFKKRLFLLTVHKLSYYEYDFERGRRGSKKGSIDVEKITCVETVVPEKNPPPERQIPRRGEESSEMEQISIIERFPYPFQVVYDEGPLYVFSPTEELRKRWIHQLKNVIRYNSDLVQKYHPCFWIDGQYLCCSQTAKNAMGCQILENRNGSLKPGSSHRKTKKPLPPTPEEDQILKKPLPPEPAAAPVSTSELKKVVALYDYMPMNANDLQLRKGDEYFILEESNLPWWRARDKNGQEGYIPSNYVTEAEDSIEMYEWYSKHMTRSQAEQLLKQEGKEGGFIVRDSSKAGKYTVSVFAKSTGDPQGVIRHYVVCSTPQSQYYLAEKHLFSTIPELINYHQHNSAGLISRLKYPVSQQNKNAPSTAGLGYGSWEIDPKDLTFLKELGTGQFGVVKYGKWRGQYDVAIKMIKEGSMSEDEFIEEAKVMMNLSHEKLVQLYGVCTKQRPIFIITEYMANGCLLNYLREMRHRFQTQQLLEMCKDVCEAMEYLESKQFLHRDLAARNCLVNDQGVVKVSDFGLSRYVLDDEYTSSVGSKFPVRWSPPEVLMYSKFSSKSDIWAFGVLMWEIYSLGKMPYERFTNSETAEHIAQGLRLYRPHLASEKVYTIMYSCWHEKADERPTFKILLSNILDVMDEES
T5 sequence (P42681 whole entry): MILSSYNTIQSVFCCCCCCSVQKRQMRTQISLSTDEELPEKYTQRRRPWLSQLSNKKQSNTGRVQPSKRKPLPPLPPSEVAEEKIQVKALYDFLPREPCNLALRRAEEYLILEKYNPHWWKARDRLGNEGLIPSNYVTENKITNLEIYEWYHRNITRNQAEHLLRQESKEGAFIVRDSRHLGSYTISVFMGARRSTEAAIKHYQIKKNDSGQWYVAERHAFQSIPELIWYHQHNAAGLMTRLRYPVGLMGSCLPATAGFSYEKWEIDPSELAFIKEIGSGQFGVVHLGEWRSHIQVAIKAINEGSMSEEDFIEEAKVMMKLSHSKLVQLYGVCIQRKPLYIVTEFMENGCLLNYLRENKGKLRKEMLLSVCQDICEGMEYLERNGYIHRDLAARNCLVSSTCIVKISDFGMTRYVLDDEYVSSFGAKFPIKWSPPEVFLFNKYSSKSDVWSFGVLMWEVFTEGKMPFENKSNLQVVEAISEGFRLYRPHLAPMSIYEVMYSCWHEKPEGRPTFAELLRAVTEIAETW

In the case of `O=C1CCc2c(Oc3ccc4c(c3)[C@@H]3[C@H](O4)[C@H]3c3nc4ccc(C(F)(F)F)cc4[nH]3)ccnc2N1` [5-(((1R,1aS,6bR)-1-(6-(trifluoromethyl)-1H-benzo[d]imidazol-2-yl)-1a,6b-dihydro-1H-cyclopropa[b]benzofuran-5-yl)oxy)-3,4-dihydro-1,8-naphthyridin-2(1H)-one sesqui-maleate salt], the “enzyme inhibition” value [1] is reported as “potently inhibits”, the IC50 ([1]; ATP at KM) is reported as 61 nM and the “enzyme inhibition” value [2] is reported as “weak inhibition”. The IC50 ([2]; ATP at KM) was 917 nM, the “enzyme inhibition” value [3] was “potently inhibits” and the IC50 ([3]; ATP at KM) was 25 nM. For the same compound, the “enzyme inhibition” value [4] was “no inhibition”, the IC50 ([4]; ATP at KM) was > 10000 nM and the “enzyme inhibition” value [5] was “weak inhibition”. For the same compound, the IC50 ([5]; ATP at KM) was 4800 nM, the “enzyme inhibition” value [6] was “no inhibition” and the IC50 ([6]; ATP at KM) was > 10000 nM. The “enzyme inhibition” value [7] was “no inhibition”, the IC50 ([7]; ATP at KM) was > 10000 nM and the “enzyme inhibition” value [8] was “potently inhibits”. The IC50 ([8]; ATP at KM) was 17 nM, the “enzyme inhibition” value [9] was “potently inhibits” and the IC50 ([9]; ATP at KM) was 18 nM. The EC50 [10] was 137 ± 0.5 nM, the EC50 [11] was 147 ± 0.6 nM and the EC50 [12] was 251 ± 54 nM. The EC50 [13] was 138 ± 13 nM, the IC50 [14] was 1960 nM and the IC50 ([15]; BRAF V600E (416-766), ATP at KM) was 26 nM. For the same compound, the “enzyme inhibition” value ([15]; V600E mutant B-RAF) was “potent and reversible inhibitor”, the bioavailability ([16]; Sprague-Dawley, rat, in vivo, po) was 51 to 102% and the half-life ([16]; Sprague-Dawley, rat, in vivo, after oral administration, read-out: elimination half-life) was 4.4 to 9.4 h. The “accumulation after multiple dosing” value [16] was ~2 fold and the “kinetics over dose range” value ([16]; 0.5 to 15 mg/kg) was “linear”.
